pIC50: −log10 of the molar value.
Legend:
[1] = target: BCL-2 binding to BAD peptide (Homo sapiens, UniProt P10415); assay: BCL2 SPR solution inhibition assay, BAD peptide surface (Biacore A100); details: read-out: BCL2_SPR IC50 BAD
Description: (§1) 33The present method includes utility of a Surface plasmon resonance (SPR)-based biosensor (Bia34core™′ GE Healthcare, Uppsala, Sweden) to characterize BCL-2 inhibitors. 35
(§2) 36Biacore™ utilizes the phenomenon of surface plasmon resonance (SPR) to detect and measure 37binding interactions. In a typical Biacore experiment, one of the interacting molecules (ligand) is i38mmobilized on a flexible dextran matrix while the interacting partner (analyte) is allowed to fl39ow across that surface. A binding interaction results in an increase in mass on the sensor surface 40and a corresponding direct change in the refractive index of the medium in the vicinity of the 41sensor surface. Changes in refractive index or signal are recorded in resonance units (R.U.) Signal 42changes due to association and dissociation of complexes are monitored in a non-invasive manne43r, continuously and in real-time, the results of which are reported in the form of a sensorgram.44
(§3) The SPR assay is con45figured to examine solution inhibition of BCL-2 binding to peptide derivatized sensor surfa46ces to generate IC50 values as a measure of inhibitor potency.
(§4) Biacore™ A100 (GE Healthcare, Uppsala, Sweden) was used to conduct all experiments reported herein. Sensor surface preparation and all interaction analyses experiments were performed at 25° C. Reagents were purchased from GE Healthcare. Running buffer containing 10 mM Hepes, pH7.4, 150 mM sodium chloride, 1.25 mM Dithiothreitol, 3% Dimethyl sulfoxide and 0.05% polysorbate 20 were utilized throughout all analyses.
(§5) Biotinylated BAK, BAD and NOXA peptides were diluted to 10 nM in running buffer and captured onto a sensor surface pre-derivatized with streptavidin (sensor chip SA) to peptide surface densities in the range 50-100 R.U. Peptide captured surfaces were blocked with 500 μM PEO2-Biotin.
(§6) Interaction analyses were performed by first equilibrating each sample within a 6 point three fold compound dilution series in the range 16 μM to […] with 56 nM BCL-2 for one hour during instrument start-up procedures. Protein compound mixtures were then injected over each peptide surface in parallel for 60 seconds at a flow-rate of 30 μL/min. 56 nM BCL-2 control samples were also prepared and run at regular intervals during the assay. Surface regeneration was performed at the end of each analysis cycle by two 30 second injections of 10 mM Glycine, pH 2.5, 1M Sodium Chloride, 0.05% polysorbate 20. Samples and control compound samples were run in duplicate and controls are also run at regular intervals during the assay to monitor surface and assay performance.
(§7) Data analyses are carried out using Biacore™ A100 evaluation software v1.1 to validate assay quality. Binding level report points were used relative to BCL-2 control samples to calculate % inhibition values for each compound protein mixture. […] The range of data shown in table 1 represents the high and low IC50 values obtained from multiple experiments.

[2] = target: BCL-2 binding to BAK peptide (Homo sapiens, UniProt P10415); assay: BCL2 SPR solution inhibition assay, BAK peptide surface (Biacore A100); details: read-out: BCL2_SPR IC50 BAK
Description: as §1, §2, §3, §4, §5, §6, §7

Sequence of BCL-2 binding to BAK peptide (P10415 whole entry): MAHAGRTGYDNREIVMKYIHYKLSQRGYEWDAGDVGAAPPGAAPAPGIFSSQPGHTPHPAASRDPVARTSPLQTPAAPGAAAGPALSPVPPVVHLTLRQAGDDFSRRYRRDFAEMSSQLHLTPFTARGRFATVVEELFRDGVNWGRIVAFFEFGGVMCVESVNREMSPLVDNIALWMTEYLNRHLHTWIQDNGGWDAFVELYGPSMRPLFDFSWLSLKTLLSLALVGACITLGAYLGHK
Sequence of BCL-2 binding to BAD peptide (P10415 whole entry): as above

pIC50 [1]	pIC50 [2]	Compound
6.13 to 6.14	6.18 to 6.21	CCCCN(CCCC)C(=O)c1cc(C)n(-c2ccc(-c3ccc(Cl)c(C(=O)N(C)C)c3)cc2C(=O)N2Cc3ccccc3C[C@H]2CO)n1 [Example 39]
5.11 to 5.19	5.23 to 5.31	CCCCN(CCCC)C(=O)c1cc(C)n(-c2ccc(-c3ccccc3C#N)cc2C(=O)N2Cc3ccccc3C[C@H]2CO)n1 [Example 40]
5.69 to 5.71	5.59 to 5.74	CCCCN(CCCC)C(=O)c1cc(C)n(-c2ccc(-c3c(C)noc3C)cc2C(=O)N2Cc3ccccc3C[C@H]2CO)n1 [Example 41]
4.99 to 5.15	5.14 to 5.20	CCCCN(CCCC)C(=O)c1cc(C)n(-c2ccc(-c3cccc(F)c3Cl)cc2C(=O)N2Cc3ccccc3C[C@H]2CO)n1 [Example 42]
6.21 to 6.23	6.04 to 6.05	CCCCN(CCCC)C(=O)c1cc(C)n(-c2ccc(-c3cc(C)cc(C)c3)cc2C(=O)N2Cc3ccccc3C[C@H]2CO)n1 [Example 43]
5.66 to 5.68	5.53 to 5.60	CCCCN(CCCC)C(=O)c1cc(C)n(-c2ccc(-c3ccc(F)c(F)c3)cc2C(=O)N2Cc3ccccc3C[C@H]2CO)n1 [Example 44]
5.12 to 5.14	5.12 to 5.13	CCCCN(CCCC)C(=O)c1cc(C)n(-c2ccc(-c3cccc(Cl)c3Cl)cc2C(=O)N2Cc3ccccc3C[C@H]2CO)n1 [Example 45]
< 4.80	< 4.80	CCCCN(CCCC)C(=O)c1cc(C)n(-c2ccc(-c3ccc(OC)c4ccccc34)cc2C(=O)N2Cc3ccccc3C[C@H]2CO)n1 [Example 46]
6.20 to 6.21	6.23 to 6.30	CCCCN(CCCC)C(=O)c1cc(C)n(-c2ccc(-c3cccc(C)c3)cc2C(=O)N2Cc3ccccc3C[C@H]2CO)n1 [Example 47]
6.02	6.17 to 6.18	CCCCN(CCCC)C(=O)c1cc(C)n(-c2ccc(-c3ccc(S(=O)(=O)N4CCOCC4)cc3)cc2C(=O)N2Cc3ccccc3C[C@H]2CO)n1 [Example 48]
6.01 to 6.05	6.16 to 6.20	CCCCN(CCCC)C(=O)c1cc(C)n(-c2ccc(-c3cccc(OC)c3)cc2C(=O)N2Cc3ccccc3C[C@H]2CO)n1 [Example 49]
6.03 to 6.05	6.05 to 6.10	CCCCN(CCCC)C(=O)c1cc(C)n(-c2ccc(-c3ccc(C)c(C)c3)cc2C(=O)N2Cc3ccccc3C[C@H]2CO)n1 [Example 50]
6.05 to 6.07	6.13 to 6.18	CCCCN(CCCC)C(=O)c1cc(C)n(-c2ccc(-c3ccc(OCC)nc3)cc2C(=O)N2Cc3ccccc3C[C@H]2CO)n1 [Example 51]
6.20 to 6.25	6.32 to 6.33	CCCCN(CCCC)C(=O)c1cc(C)n(-c2ccc(-c3ccc(OC)c(OC)c3)cc2C(=O)N2Cc3ccccc3C[C@H]2CO)n1 [Example 52]
6.00 to 6.09	6.11 to 6.22	CCCCN(CCCC)C(=O)c1cc(C)n(-c2ccc(-c3cccc4cnccc34)cc2C(=O)N2Cc3ccccc3C[C@H]2CO)n1 [Example 53]
6.02 to 6.03	6.07 to 6.10	CCCCN(CCCC)C(=O)c1cc(C)n(-c2ccc(-c3cc(Cl)ccc3OC)cc2C(=O)N2Cc3ccccc3C[C@H]2CO)n1 [Example 54]
6.12 to 6.14	6.21 to 6.25	CCCCN(CCCC)C(=O)c1cc(C)n(-c2ccc(-c3ccc(OC(C)C)cc3)cc2C(=O)N2Cc3ccccc3C[C@H]2CO)n1 [Example 55]
6.53 to 6.55	6.62 to 6.67	CCCCN(CCCC)C(=O)c1cc(C)n(-c2ccc(-c3cc(OC)c(OC)c(OC)c3)cc2C(=O)N2Cc3ccccc3C[C@H]2CO)n1 [Example 56]
6.19 to 6.22	6.16 to 6.25	CCCCN(CCCC)C(=O)c1cc(C)n(-c2ccc(-c3ccc4cc(OC)ccc4c3)cc2C(=O)N2Cc3ccccc3C[C@H]2CO)n1 [Example 57]
6.82	6.95	CCCCN(CCCC)C(=O)c1cc(C)n(-c2ccc(-c3ccc(C(=O)NC)c(Cl)c3)cc2C(=O)N2Cc3ccccc3C[C@H]2CO)n1 [Example 58]
6.19 to 6.20	6.23 to 6.27	CCCCN(CCCC)C(=O)c1cc(C)n(-c2ccc(-c3cc(F)cc(OC(C)C)c3)cc2C(=O)N2Cc3ccccc3C[C@H]2CO)n1 [Example 59]

From US20140350014A1, “COMPOUNDS FOR INHIBITING THE INTERACTION OF BCL2 WITH BINDING PARTNERS” (NOVARTIS AG, priority 2011, published 2014)
